# Source: patent US20240294484A1, “HERBICIDAL ARYLDIHYDROFURANE CARBOXYLATES” (BASF SE, priority 2021, published 2024)
# Columns and labels:
# [1] = system: APESV; experiment: greenhouse pre-emergence herbicidal test; assay type: in vivo, Apera spica-venti; details: pre-emergence method, application rate 1,000 kg/ha; scale from 0 to 100
# From the text: (§1) The culture containers used were plastic flowerpots containing loamy sand with approximately 3.0% of humus as the substrate. The seeds of the test plants were sown separately for each species.
# (§2) For the pre-emergence treatment, the active ingredients, which had been suspended or emulsified in water, were applied directly after sowing by means of finely distributing nozzles. The containers were irrigated gently to promote germination and growth and subsequently covered with transparent plastic hoods until the test plants had rooted. This cover caused uniform germination of the test plants, unless this had been impaired by the active ingredients. For the post-emergence treatment, the test plants were first grown to a height of 3 to 15 cm, depending on the plant habit, and only then treated with the active ingredients which had been suspended or emulsified in water. For this purpose, the test plants were either sown directly and grown in the same containers, or they were first grown separately as seedlings and transplanted into the test containers a few days prior to treatment.
# (§3) Depending on the species, the test plants were kept at 10-25° C. or 20-35° C., respectively. The test period extended over 2 to 4 weeks. During this time, the test plants were tended, and their response to the individual treatments was evaluated.
# (§4) Evaluation was carried out using a scale from 0 to 100. […]
# [2] = system: ECHCG; experiment: greenhouse pre-emergence herbicidal test; assay type: in vivo, Echinocloa crus-galli; details: pre-emergence method, application rate 1,000 kg/ha; scale from 0 to 100
# From the text: as §1, §2, §3, §4
# [3] = system: AVEFA; experiment: greenhouse post-emergence herbicidal test; assay type: in vivo, Avena fatua; details: post-emergence method, application rate 1,000 kg/ha; scale from 0 to 100
# From the text: as §1, §2, §3, §4
# [4] = system: AMARE; experiment: greenhouse pre-emergence herbicidal test; assay type: in vivo, Amaranthus retroflexus; details: pre-emergence method, application rate 1,000 kg/ha; scale from 0 to 100
# From the text: as §1, §2, §3, §4
# [5] = system: AMARE; experiment: greenhouse post-emergence herbicidal test; assay type: in vivo, Amaranthus retroflexus; details: post-emergence method, application rate 1,000 kg/ha; scale from 0 to 100
# From the text: as §1, §2, §3, §4
compound,measurement,setting,value
"ethyl 4-(3,5-dichlorophenyl)-2-methyl-3H-furan-2-carboxylic acid [compound 14]",herbicidal activity against APESV,[1],very good herbicidal activity (a very good herbicidal activity is given at values of 90 to 100)
same,herbicidal activity against ECHCG,[2],very good herbicidal activity (a very good herbicidal activity is given at values of 90 to 100)
"O=C(O)C1(C(F)(F)F)CC(c2cc(F)cc(F)c2)=CO1 (stereo not drawn) [compound 17, 4-(3,5-difluorophenyl)-2-(trifluoromethyl)-3H-furan-2-carboxylic acid]",herbicidal activity against AVEFA,[3],very good herbicidal activity (a very good herbicidal activity is given at values of 90 to 100)
"ethyl 4-(3,5-difluorophenyl)-2-methyl-3H-furan-2-carboxylic acid [compound 12]",herbicidal activity against AMARE,[4],good herbicidal activity (A good herbicidal activity is given at values of 65 to 90)
same,herbicidal activity against ECHCG,[2],good herbicidal activity (A good herbicidal activity is given at values of 65 to 90)
"CCOC(=O)C1CC(c2cc(F)cc(F)c2)=CO1 (stereo not drawn) [compound 11, ethyl 4-(3,5-difluorophenyl)-2,3-dihydrofuran-2-carboxylate]",herbicidal activity against AMARE,[5],very good herbicidal activity (a very good herbicidal activity is given at values of 90 to 100)
